pEC50: −log10 of the molar value. Where two headings read alike, the source gives them in different places.
Assays:
[1] = system: dystrophin pre-mRNA exon 23 in primary wild-type cardiomyocytes; test: Exon 23 skipping by nested RT-PCR in primary wild-type cardiomyocytes; type: cell-based, mouse; details: for %ES (percentage of exon skipping): 1000 nM, WT (healthy) cardiomyocytes, serum-containing medium, 24 h post-treatment, n ≥ 4
[2] = system: dystrophin pre-mRNA exon 23 in primary mdx cardiomyocytes; test: Exon 23 skipping by nested RT-PCR in primary mdx cardiomyocytes; type: cell-based, mouse
[3] = system: H2k mdx myotubes; test: Cellular uptake by fluorescence spectroscopy in H2k mdx myotubes
Procedure: After incubation with 3′-fluorescein labelled Pip6a-PMO or 3′-fluorescein-labelled PMO, cells were washed twice with PBS and lysed with 300 µl GLB buffer (Promega). In all, 100 µl of the lysate were transferred into black non-binding 96-well plates (Greiner) and fluorescence was measured on a Tecan plate reader (Ex 485 nm/Em 520 nm). Protein concentration was measured by a BCA kit (Pierce) on a Tecan plate reader (Abs 560 nm).

[4] = system: dystrophin pre-mRNA exon 23 in H2k mdx myotubes; test: Exon 23 skipping by nested RT-PCR in differentiated H2k mdx myotubes; type: cell-based, mouse
[5] = system: dystrophin pre-mRNA exon 23 in H2k mdx myoblasts; test: Exon 23 skipping by nested RT-PCR in undifferentiated H2k mdx myoblasts; type: cell-based, mouse
[6] = system: dystrophin pre-mRNA exon 23 in C2C12 myotubes; test: Exon 23 skipping by nested RT-PCR in differentiated C2C12 myotubes; type: cell-based, mouse; details: serum-containing transfection media, 24 h post-treatment
Procedure: Figure S3. Exon skipping efficiency of Pip6a-PMO in C2C12 skeletal muscle cells. C2C12 cells were differentiated for 6 days and thereafter incubated with Pip6a-PMO under serum condition (+S). Transfections were carried out for 4 h under serum conditions and cells were incubated further with serum-containing medium for 20 h. Exon skipping efficiency was evaluated on pre-mRNA levels by nested RT-PCR. Products were separated by gel electrophoresis and exon skipping values were derived from densitometric analysis. (Percentage of exon skipping (%ES) calculated as described in Figure S1 with n≥4).

[7] = 1 µM concentration; cited from earlier work
Description: A full comparison of EC50 values is difficult since ...

PMO: phosphorodiamidate morpholino oligomer 5′-GGCCAAACCTCGGCTTACCTGAAAT-3′ with 5′-amino linker and 3′-fluorescein label, Gene Tools (morpholino, 5'-amino linker, 3'-fluorescein, chemistry not fully specified) [reference compound]
%ES (percentage of exon skipping) ([1]; listed as naked PMO): failed to induce any exon skipping
%ES (percentage of exon skipping) ([2]; 1000 nM, mdx cardiomyocytes, serum-containing medium, 24 h post-treatment, n ≥ 4, listed as naked PMO): failed to induce any exon skipping
cellular uptake (fluorescence) ([3]; 1000 nM, 4 h incubation, cell lysate fluorescence Ex 485 nm/Em 520 nm): no uptake

Ac-RXRRBRRXRYQFLIRXRBRXRB-OH [Pip6a-PMO]
%ES (percentage of exon skipping) [1]: 44%
change of exon skipping with 48 h incubation ([1]; 48 h post-treatment compared with 24 h, primary wild type cardiomyocytes, Supplementary Figure S7): did not increase significantly
exon skipping ([4]; 1 µM, statement of the discussion): complete exon skipping
pEC50 ([4]; 48 h post-treatment (4 h transfection, then 44 h serum-containing medium), serum condition (+S), read-out: EC50 at 48 h (exon 23 skipping)): 7.70
pEC50 ([4]; serum-free medium (-S), 24 h post-treatment, Prism 5.0 after normalization of the Δ23 skipping, read-out: EC50 (concentration required to achieve 50% exon 23 skipping)): 7.39
pEC50 ([4]; serum-supplemented transfection medium (+S), 24 h post-treatment, Prism 5.0 after normalization, read-out: EC50 (exon 23 skipping)): 7.52
EC50 in H2k mdx myoblasts relative to H2k mdx myotubes ([5]; 183 nM in myoblasts compared with myotubes): ~6 times
pEC50 ([5]; undifferentiated H2k mdx myoblasts, data not shown): 6.74
pEC50 ([2]; primary cardiomyocytes from neonatal mdx and wild-type mice, not distinguished, approximate): ~6.00
pEC50 [6]: 6.97
effect of EIPA on cellular delivery and exon-skipping activity ([3]; 250 nM, 4 h, EIPA 10 µM, 30 min pre-treatment, n ≥ 4): only negligible effects
effect of CPZ on cellular delivery and exon-skipping activity ([3]; 250 nM, 4 h, chlorpromazine 30 µM, 30 min pre-treatment, n ≥ 4): only negligible effects
effect of nystatin on uptake and exon 23-skipping efficiency ([3]; 250 nM, 4 h, nystatin 50 µM, 30 min pre-treatment, n ≥ 4): pronounced effect
increase of uptake in myotubes versus myoblasts ([3]; H2k mdx cells, 4 h incubation, fluorescence spectroscopy): 2 fold

(RXRRBR)2 [B-PMO, PMO covalently linked to the (RXRRBR)2 B-peptide, previously described PPMO]
reported exon-skipping level [7]: ~45%
